This note sets out measurements from patent publication US20090221095A1, “Colorimetric Screening of DNA Binding/Intercalating Agents with Gold Nanoparticle Probes” (NORTHWESTERN UNIVERSITY, priority 2005, published 2009).

Holding throughout (type): binding
For assay [1], the system named is triplex DNA on chip surface. The assay can be described thus: Chip-based scanometric detection of triplex DNA binders (silver enhancement). The conditions noted are these: varying salt concentrations (0.1 to 0.3 M NaCl), binder 5 μM, DNA-3 150 nM. The method, then: For scanometric detection of duplex or triplex DNA binding molecules, Au nanoparticles (1 nM) and DNA binding molecules (5 μM) in 10 mM PBS buffer of varying NaCl concentrations were added to the microarray slide under hybridization wells (Nanosphere, Inc.). For detection of triplex binders, 150 nM DNA-3 was added. DNA hybridization proceeded for 30 min (for duplex DNA binders) or 1 h (for triplex DNA binders) in a humidity chamber. After hybridization, the slides were washed three times with 0.5 M NaNO3 containing 0.02% Tween 20. The arrays were dried using a benchtop spinner. Silver enhancement solution (Nanosphere, Inc.) was added for Au-NP signal amplification (1 mL total volume/array, 1.5-min development time for duplex DNA binding molecules and 3 min for triplex binding molecules). The reaction was terminated by washing the slides with NANOpure® water and spin-drying. Light-scattering images from the silver-enhanced chips were recorded using the high-resolution Verigene ID system (Nanosphere, Inc.).
Capture strands of synthetic oligonucleotides are patterned on a glass chip using a microarrayer. The DNA chip is then exposed to a solution containing three components: 1) complementary DNA (no nanoparticles), 2) DNA functionalized Au nanoparticles (DNA is non-complementary to the arrayed DNA) and 3) DNA binders, Scheme 4. The complementary solution-phase DNA, called DNA-3 in Scheme 2, hybridizes to the DNA on the chip surface and forms a duplex. The Au nanoparticle-bound DNA has the correct sequence to form a triplex with the surface bound duplex through sequence-specific Hoogsteen, or reverse Hoogsteen, base pairing. The triplex structure is relatively unstable at room temperature and will only form in the presence of triplex DNA binding molecules. The presence of the triplex DNA binding molecules increase the stability of the triplex, immobilizing the Au nanoparticles on the chip surface. The chip was then exposed to silver enhancement solution for further signal enhancement and then imaged using a Verigene ID scanner.
The assay was performed in the presence of two triplex binders, coralyn (CORA) and benzo[e]pyridoindole (BePI), seven duplex DNA binders, 4′,6-diamidino-2-phenylindole (DAPI), ellipticine (EIPT), amsacrine (AMSA), daunorubicin (DNR), anthraquinone-2-carboxylic acid (AQ2A), ethidium bromide (EB), and 9-aminoacridine (9-AA))., and one control (no DNA-3). Similar to the DNA duplex, the formation of the DNA triplex is a reversible process which is affected by both temperature and salt concentration. However, compared to the duplex, the stability of the triplex is much more sensitive to salt concentration. Therefore, to determine the relative binding strength of the triplex DNA binders, the assay was performed at varying salt concentrations, FIG. 7. At 0.3 M NaCl, both the strong (BePI) and weaker (CORA) triplex binders show signal.

Assay [2] deals with triplex DNA (DNA-1, DNA-2, DNA-3). The assay can be described thus: UV melting (260 nm) of unmodified triplex DNA-1, DNA-2, DNA-3 (no nanoparticles). The conditions noted are these: duplex melting transition; solution-phase unmodified DNA, 1 μM each strand, 6 μM binder, 0.5 M NaCl 10 mM PBS. The method, then: To compare the results from the previous examples with more traditional screening techniques, all eight intercalators were screened, plus a control, by monitoring UV absorbance melting curves (260 nm) of unmodified DNA-1, DNA-2, and DNA-3 (1 μM each), with each intercalator (10 μM), (DNA-1; 3′ TTCTTCTTTTTT CT-5′. DNA-2: 5′-TTCTTCTTTTTTCT-3′, DNA-3: 5′-AAGAAGAAAAAA-3′). (FIG. 2B). The melting experiment performed in the presence of BePl has two melting transitions. The first Tm at 34.8° C. is associated with the denaturation of the triplex structure and the second Tm at 61.4° C. is representative of the corresponding duplex.
To determine the Tm of the duplex DNA in the presence of DNA binders, 2 μM duplex DNA and 5 μM DNA binder were combined in 0.3 M NaCl 10 mM PBS. To determine the Tm of the triplex DNA in the presence of DNA binders, 1 μM of each strand and 6 μM of each DNA binder were combined in 0.5 M NaCl 10 mM PBS. UV-vis melting curves were measured on a CARRY 500 spectrophotometer equipped with a circulating bath. The melting process was monitored by measuring the change in extinction at 260 nm. The solutions were stirred continuously with a magnetic stir bar as the solution temperature was increased at a rate of 0.5° C./min. The first derivative generated from the melting curves was used to determine the Tm.
A melting transition associated with the triple helix was found only for experiments performed in the presence of BePI (34.8° C.) and CORA (17.1° C.) where BePI is determined to be the stronger binder. This is in agreement with the results determined by the chip-based scanometric method described above.

The subject of assay [3] is triplex DNA (NP-1/DNA-3/NP-2). Put plainly: Colorimetric triplex binder assay: aggregation of NP-1, NP-2 gold nanoparticles and free DNA-3. The conditions noted are these: NP-1 and NP-2 1.5 nM each, DNA-3 150 nM, binder 5 μM, 10 mM PBS pH 7.0, NaCl 0.5 M, room temperature. From the text:
This method utilizes the aggregation-induced, red-to-blue color change associated with 13 nm gold (Au) nanoparticles. The assay consists of two sets of gold nanoparticles NP-1 and NP-2, and a free strand of DNA, DNA-3. […] DNA-3 is complementary to NP-1 with a two base dangling end to prevent noncross-linked NP-1 aggregation. When NP-1 and DNA-3 are combined, they form nonaggregate linking duplexes on the nanoparticle surface. […] However, introduction of a strong triplex binding agent, benzo[e]pyridoindole (BePl), stabilizes triplex formation through Hoogsteen-type Py-PaPy triplet base hydrogen bonds and induces nanoparticle aggregation resulting in a concomitant red-to-blue color change due to a red-shifting and dampening of the nanoparticle plasmon resonance (Scheme 1).
This assay is prepared by combining NP-1 and NP-2 (1.5 nM each) in a 1:1 molar ratio in 10 mM PBS buffer (pH=7.0, NaCl 0.5 M) with DNA-3 (150 nM) and BePl (5 μM). […] This stabilization results in a dramatic decrease in absorbance at 520 nm accompanied by a red-to-blue color change. Note that in the absence of DNA-3, NP-1 and NP-2 cannot form aggregates even in the presence of a strong triplex binder (FIG. 1B).
To further investigate the importance of the triplex structure and rule out aggregation due to duplex formation between the nanoparticles, the assay as set out in Example I was performed in the presence of seven additional duplex binders 4′,6-diamidino-2-phenylindole (DAPI), ellipticine (EIPT), amsacrine (AMSA), daunorubicin (DNR), anthraquinone-2-carboxylic acid (AQ2A), ethidium bromide (EB), and 9-aminoaclidine (9-AA)(5 μM).
In general, assay methods that can detect drug candidates by the naked eye, without resorting to any instrumentation, are convenient, and for this reason, an assay that could screen for triplex binders would be of great interest. At present, there are no assays that provide this capability. […] The mixtures of NP-1, NP-2 and DNA-3 containing the control and duplex intercalators remain red in color.

Take `Nc1c2ccccc2nc2ccccc12` [9-AA, 9-aminoacridine]: the scanometric signal result in assay [1] is “No signal”. The “Tm 2-1” value in assay [2] was determined as 59.1 °C. Moreover, the “nanoparticle aggregation (decrease in absorbance at 520 nm, red-to-blue color change)” value in assay [3] is “no nanoparticle aggregation”.
Regarding `O=C(O)c1ccc2c(c1)C(=O)c1ccccc1C2=O` [AQ2A, anthraquinone-2-carboxylic acid], the scanometric signal entry in assay [1] was “No signal”. Moreover, in assay [2], the “Tm 2-1” value was found to be 59.1 °C. The “nanoparticle aggregation (decrease in absorbance at 520 nm, red-to-blue color change)” value in assay [3] was “no nanoparticle aggregation”.
The like results for `N=C(N)c1ccc(-c2cc3ccc(C(=N)N)cc3[nH]2)cc1` [DAPI, 4′,6-diamidino-2-phenylindole] were, in that order, “No signal”, 66.3 °C and “no nanoparticle aggregation”.
For the compound `COc1cccc2c1C(=O)c1c(O)c3c(c(O)c1C2=O)C[C@@](O)(C(C)=O)C[C@@H]3O[C@H]1C[C@H](N)[C@H](O)[C@H](C)O1` [DNR, daunorubicin], the scanometric signal result in assay [1] is on record as “No signal”. The “Tm 2-1” value in assay [2] was determined as 61.7 °C. The “nanoparticle aggregation (decrease in absorbance at 520 nm, red-to-blue color change)” value in assay [3] is reported as “no nanoparticle aggregation”.
With `Cc1c2ccncc2c(C)c2c1[nH]c1ccccc12` [EIPT, ellipticine], in assay [1], the scanometric signal result was “No signal”. Further, the “Tm 2-1” value in assay [2] worked out at 59.3 °C. Further, the “nanoparticle aggregation (decrease in absorbance at 520 nm, red-to-blue color change)” value in assay [3] is reported as “no nanoparticle aggregation”.
